Reference: patent US20080248002A1, “ANTI-ANGIOGENIC CELLULAR AGENT FOR CANCER THERAPY” (priority 1999, published 2008)

Legend:
OCI-Ly8 = assay: BFA / conA treatment of CIK effector cells, lysis of OCI-Ly8; type: cell-based; conditions: day 21 CIK effector cells pre-incubated 2 hours with 1 μM BFA or 0.1 μM conA
Method: (§1) Brefeldin A (BFA) blocks the transport of FasL from intracellular stores to the cell surface (Lippincott-Schwartz et al. (1989) Cell 56:801; Lippincott-Schwartz et al. (1990) Cell 60:821; and Orci et al. (1991) Cell 64:1183). […] BFA was dissolved at 100 μg/ml in 70% ethanol and used fresh or stored up to 4 weeks at −20° C. Prior to cytotoxicity assays, the cells were rinsed three times with PBS and BFA-free fresh medium was added.
(§2) Concanamycin A (conA) depletes perforin contained in cytotoxic T-cell granules (Kataoka et al. (1996) J. Immunol. 156:3678; Ohminami et al. (1999) Blood 93:925). 15 ConA-treated effector cells were used in cytotoxicity assays to approximate the fractional contribution of the perforin/granzyme pathway to the total CIK cell mediated cytotoxicity.
(§3) Louis, Mo.). The cells were then incubated for 2 hours at 37° C. in a humidified atmosphere of 5% CO2.
(§4) BFA treatment of effector cells and the associated block of FasL transport reduced CIK lysis of the tumor target OCI-Ly8 by 33%, but had no effect on the lysis of EC targets (FIG. 4).

EC targets = assay: BFA / conA treatment of CIK effector cells, lysis of EC targets; type: cell-based, human; conditions: day 21 CIK effector cells pre-incubated 2 hours with 1 μM BFA or 0.1 μM conA
Method: as §1, §2, §3, §4

[1] = tested on: lymphoblastoid target AMK; assay: BFA / TM pre-treatment of CIK targets, 51Cr release assay, lymphoblastoid target AMK; type: cell-based; conditions: target pre-treatment (TM 22 hr), 20:1 E:T ratio
Method: (§5) CIK targets were treated with BFA and/or tunicamycin (TM). […] This resistance is sustained after BFA is removed from the media.

OCI-Ly8 tumor targets = assay: BFA / TM pre-treatment of CIK targets, 51Cr release assay, OCI-Ly8 tumor targets; type: cell-based; conditions: 20:1 E:T ratio
Method: as §5

EC = assay: BFA pre-treatment of CIK targets, 51Cr release assay, EC; type: cell-based; conditions: targets pre-treated with 10 μM BFA, 20:1 E:T ratio
Method: as §5

Molecule | reduction of CIK lysis of OCI-Ly8 (OCI-Ly8) | effect on CIK lysis of EC targets (EC targets) | effect of target pre-treatment on CIK killing of lymphoblastoid targets [1] | effect of target pre-treatment on CIK killing of tumor targets (OCI-Ly8 tumor targets) | protection of EC from CIK mediated lysis (EC)
C/C=C/[C@H]1O[C@@](O)([C@@H](C)[C@H](O)[C@H](C)[C@H]2OC(=O)/C(OC)=C/C(C)=C/[C@@H](C)[C@@H](O)[C@@H](CC)[C@@H](O)[C@H](C)C/C(C)=C/C=C/[C@@H]2OC)C[C@@H](O[C@H]2C[C@@H](O)[C@H](OC(N)=O)[C@@H](C)O2)[C@@H]1C [Con A, Concanamycin A] | 66% | completely abolished EC lysis | – | – | –
tunicamycin [TM] | – | – | rendered susceptible | Neither TM or TM and BFA together altered CIK mediated lysis | –
C[C@H]1CCC/C=C/[C@@H]2C[C@H](O)C[C@H]2[C@H](O)/C=C/C(=O)O1 [BFA, Brefeldin A] | 33% | no effect | did not reduce killing | did not reduce killing | complete protection
